Entries after “also recorded” stand apart in the source; their conditions may differ.
Assays:
Format in all cases: cell-based, human
GPR160 gene = assay: Quantitative RT-PCR of GPR160 expression after lentiviral shRNA infection; conditions: compared with control virus ShGPR160-S10
Excerpt: The total RNA of each cultured cell was extracted with Trizol reagent (Invitrogen), Oligo-dT was used as primer, and reverse transcriptase was transcribed to generate cDNA. The template and primers were mixed with SYBR detection reagents (TaKaRa) and detected by 7300 Quantitative PCR instrument. The reference gene encodes the β-actin gene ACTB (NC 000007.14).
The lentivirus shRNA expression plasmid (Cat. No. TL312662) was purchased from OriGene, in which the target gene sequence targeted by the GPR160 siRNA is shown in SEQ ID NO: 1, and the sense strand sequence of the siRNA is shown in SEQ ID NO.: 6, SEQ ID NO: 7, SEQ ID NO.: 8, SEQ ID NO: 9, respectively. The sense strand sequence of the non-specific control siRNA is shown in SEQ ID NO: 10.
The siRNA expression plasmid pGFP-C-shGPR160 and the control plasmid pGFP-C-Scramble were extracted with Qiagene plasmid extraction kit and mixed with the packaging plasmid, and then 293T cells that had been inoculated for 24 hours were transfected with MegaTran (OriGene), and the virus supernatant was collected after 72 hours. After centrifugation at 15000 rpm for 15 minutes to remove cell debris, a quarter volume of Lentivirus Concentration (Biomiga) was added for concentration, and was stored at −80° C. in aliquots. Viruses produced by transfection of pGFP-C-shGPR160 plasmid containing the sequences SEQ ID NO: 6 to SEQ ID NO: 9 were labeled as ShGPR160-S6, ShGPR160-S7, ShGPR160-S8, and ShGPR160-S9, respectively. The virus produced by transfection of the non-specific control plasmid was designated ShGPR160-S10.
PC-3 and LNCaP cells were infected with the prepared lentiviruses at multiplicity of infection (MOI) of 40 and 10, respectively. After 72 hours, the total RNA of the infected cells was extracted, and the expression of GPR160 in the cells was detected by quantitative RT-PCR.

LNCaP cells [1] = assay: CCK-8 proliferation assay; conditions: infected 48 hours, cultured 1, 3 and 5 days, Scramble group = 100%
Description: (§1) To examine the effect of GPR160-specific SiRNAs on proliferation of prostate cancer cells, PC-3 and LNCaP cells, after infected by virus for 48 hours, were plated in 96-well plates at a density of 5000/100/μl/well and 2500/100 μl/well, respectively, and cultured for 1, 3, and 5 days respectively, 10 μl/well of CCK-8 detection reagent (TaKaRa) was added 4 hours before the end of culture, and light absorption at 450 nm was detected at the end of incubation. The reference wavelength was 650 nm. The reading of Scramble group was set to 100%.

PC-3 cells [2] = assay: CCK-8 proliferation assay; conditions: infected 48 hours, cultured 1, 3 and 5 days, Scramble group = 100%
Description: as §1

PC-3 cells [3] = assay: Colony formation, crystal violet staining; conditions: 12 to 20 days culture, versus ShGPR160-S10 control group (100%)
Description: (§2) Based on the above results, PC-3 and LNCaP cells were infected with ShGPR160-S6, ShGPR160-S7, and ShGPR160-S10 for 48 hours, and inoculated into […] at 1000/2 ml/well. After 12 to 20 days of continuous culture, the cells were stained with 0.1% crystal violet solution, dried, and the number of colonies per well counted. The group infected with ShGPR160-S10 virus was set as a 100% control.

LNCaP cells [4] = assay: Colony formation, crystal violet staining; conditions: 12 to 20 days culture, versus ShGPR160-S10 control group (100%)
Description: as §2

[5] = LNCaP cells, MOI 10, 72 hours after infection
[6] = PC-3 cells, MOI 40, 72 hours after infection

| Substance | inhibitory efficiency on GPR160 expression (GPR160 gene; [5]) | inhibitory efficiency on GPR160 expression (GPR160 gene; [6]) | effect on proliferation (LNCaP cells [1]) | effect on proliferation (PC-3 cells [2]) | number of clones formed (PC-3 cells [3]) | number of clones formed (LNCaP cells [4]) |
| --- | --- | --- | --- | --- | --- | --- |
| ShGPR160-S8: Lentivirus from pGFP-C-shGPR160 plasmid; siRNA sense strand SEQ ID NO.: 8, 5′-CCATCTACCAAAGCCTGAAGGCACAGAAT-3′ | 32.8% | 41.7% | no inhibitory effect; also recorded: no significant effect | – | – | – |
| ShGPR160-S7: Lentivirus from pGFP-C-shGPR160 plasmid; siRNA sense strand SEQ ID NO.: 7, 5′-TTCTATGTCAGCATTCAGAGTTACTGGCT-3′ | 91.7% | 85.0% | significantly inhibited | significantly inhibited | significantly less | significantly less |
| ShGPR160-S9: Lentivirus from pGFP-C-shGPR160 plasmid; siRNA sense strand SEQ ID NO.: 9, 5′-CCATTTGTCAACTGGAAGTGCTGCTTCAT-3′ | 56.2% | 41.8% | – | – | – | – |
| ShGPR160-S6: Lentivirus from pGFP-C-shGPR160 plasmid; siRNA sense strand SEQ ID NO.: 6, 5′-TTGGTACAGGCTATCAGGATAACTTCCTA-3′ | 86.2% | 87.8% | significantly inhibited | significantly inhibited | significantly less | significantly less |

Reference: patent US10865415B2, “Prevention, diagnosis and treatment of cancer overexpressing GPR160” (Shanghai Institute of Materia Medica, Chinese Academy of …, priority 2015, dated 2020)
